Legend:
α1G T-type Ca^2+ channel = target: T1, α1G T-type Ca^2+ channel (Homo sapiens, UniProt O43497); assay: T-type Ca2+ channel blocking activity in HEK293 cells, whole-cell patch clamp; format: cell-based; conditions: HEK293 cells expressing α1G; for IC50: whole-cell patch clamp, -100 mV to -30 mV; for inhibition at 10 µM: 10 μM (0.1% DMSO), peak current
T1 construct: expressed in transfected cells; host or cells: HEK293 cells, G-418 selected
Protocol: (§1) In order to evaluate the pharmaceutical effects induced by the compounds of the present invention, the inhibitory effects were examined according to the following procedure. As the first step, those that show more than 50% of inhibition to the calcium channel (α1H) expressed in Xenopus oocytes were screened. For the second step, α1G Ca^2+ channel activities expressed in HEK 293 cells were measured to determine the effective inhibition concentration IC50.
Measurement of T-type Ca^2+ Channel Blocking Activity of HEK293 Cells by Using Electrophysiological Method
The culture medium was prepared by adding 10% fetal bovine serum (FBS) and 1% penicillin/streptomycin (v/v) to Dulbecco's modified Eagle's medium (DMEM). The cells were cultured in an incubator having a wet condition of 95% air/5% CO2 at 37° C. The medium was replaced every 3 to 4 days and the cells were sub-cultured every week such that only the cells that expressed α1G T-type Ca^2+ channels could be grown using G-418 (0.5 mg/ml) solution. The cells that were used to measure T-type Ca^2+ channel activity were incubated on a cover slip coated by poly-L-lysine (0.5 mg/ml) every time they were sub-cultured and then recorded after 2 to 3 days. T-type Ca^2+ channel currents at the single-cell level were determined by the electrophysiological whole-cells patch clamp technique using EPC-9 amplifier (HEKA, German). Extracellular solution of NaCl 140 mM, CaCl2 2 mM, HEPES 10 mM (pH 7.4), and intracellular solution of KCl 130 mM, HEPES 10 mM, EGTA 11 mM, MgATP 5 mM (pH 7.4) were used for T-type Ca^2+ channel blocking activity. As the low voltage-activated T-type Ca^2+ channel activity protocol, a fine glass electrode of 3-4 MΩ resistance containing the above-prepared intracellular solution was inserted into a single cell to become the whole-cell recording mode, followed by fixing the potential of the cell membrane at −100 mV and measuring the inward current of the T-type Ca^2+ channel activity when […] at −30 mV (50 ms duration) every 15 seconds. Each compound was dissolved in 100% dimethylsulfoxide (DMSO) to prepare 10 mM stock solution, and then the effect of T-type Ca^2+ channel current at 1,000 fold diluted concentration of 10 μM (including 0.1% DMSO) was initially measured before IC50 values were determined by testing the effects at the concentration range for the IC50 measurement (in general, 0.1-100 μM). Specifically, cells were treated with each compound along with the extracellular solution until T-type Ca^2+ channel currents were stabilized under whole-cell voltage-clamp conditions and the inhibition level of the peak current due to the compound was calculated and expressed in percentage.

calcium channel (α1H) = target: T2, calcium channel (α1H) (Homo sapiens, UniProt O95180); assay: Inhibition of calcium channel (α1H) expressed in Xenopus oocytes (first-step screen); format: cell-based; conditions: read-out: % Inhibition in oocyte (100 μM)
T2 construct: expressed in transfected cells; host or cells: Xenopus oocytes
Protocol: as §1

T1 sequence (O43497 whole entry): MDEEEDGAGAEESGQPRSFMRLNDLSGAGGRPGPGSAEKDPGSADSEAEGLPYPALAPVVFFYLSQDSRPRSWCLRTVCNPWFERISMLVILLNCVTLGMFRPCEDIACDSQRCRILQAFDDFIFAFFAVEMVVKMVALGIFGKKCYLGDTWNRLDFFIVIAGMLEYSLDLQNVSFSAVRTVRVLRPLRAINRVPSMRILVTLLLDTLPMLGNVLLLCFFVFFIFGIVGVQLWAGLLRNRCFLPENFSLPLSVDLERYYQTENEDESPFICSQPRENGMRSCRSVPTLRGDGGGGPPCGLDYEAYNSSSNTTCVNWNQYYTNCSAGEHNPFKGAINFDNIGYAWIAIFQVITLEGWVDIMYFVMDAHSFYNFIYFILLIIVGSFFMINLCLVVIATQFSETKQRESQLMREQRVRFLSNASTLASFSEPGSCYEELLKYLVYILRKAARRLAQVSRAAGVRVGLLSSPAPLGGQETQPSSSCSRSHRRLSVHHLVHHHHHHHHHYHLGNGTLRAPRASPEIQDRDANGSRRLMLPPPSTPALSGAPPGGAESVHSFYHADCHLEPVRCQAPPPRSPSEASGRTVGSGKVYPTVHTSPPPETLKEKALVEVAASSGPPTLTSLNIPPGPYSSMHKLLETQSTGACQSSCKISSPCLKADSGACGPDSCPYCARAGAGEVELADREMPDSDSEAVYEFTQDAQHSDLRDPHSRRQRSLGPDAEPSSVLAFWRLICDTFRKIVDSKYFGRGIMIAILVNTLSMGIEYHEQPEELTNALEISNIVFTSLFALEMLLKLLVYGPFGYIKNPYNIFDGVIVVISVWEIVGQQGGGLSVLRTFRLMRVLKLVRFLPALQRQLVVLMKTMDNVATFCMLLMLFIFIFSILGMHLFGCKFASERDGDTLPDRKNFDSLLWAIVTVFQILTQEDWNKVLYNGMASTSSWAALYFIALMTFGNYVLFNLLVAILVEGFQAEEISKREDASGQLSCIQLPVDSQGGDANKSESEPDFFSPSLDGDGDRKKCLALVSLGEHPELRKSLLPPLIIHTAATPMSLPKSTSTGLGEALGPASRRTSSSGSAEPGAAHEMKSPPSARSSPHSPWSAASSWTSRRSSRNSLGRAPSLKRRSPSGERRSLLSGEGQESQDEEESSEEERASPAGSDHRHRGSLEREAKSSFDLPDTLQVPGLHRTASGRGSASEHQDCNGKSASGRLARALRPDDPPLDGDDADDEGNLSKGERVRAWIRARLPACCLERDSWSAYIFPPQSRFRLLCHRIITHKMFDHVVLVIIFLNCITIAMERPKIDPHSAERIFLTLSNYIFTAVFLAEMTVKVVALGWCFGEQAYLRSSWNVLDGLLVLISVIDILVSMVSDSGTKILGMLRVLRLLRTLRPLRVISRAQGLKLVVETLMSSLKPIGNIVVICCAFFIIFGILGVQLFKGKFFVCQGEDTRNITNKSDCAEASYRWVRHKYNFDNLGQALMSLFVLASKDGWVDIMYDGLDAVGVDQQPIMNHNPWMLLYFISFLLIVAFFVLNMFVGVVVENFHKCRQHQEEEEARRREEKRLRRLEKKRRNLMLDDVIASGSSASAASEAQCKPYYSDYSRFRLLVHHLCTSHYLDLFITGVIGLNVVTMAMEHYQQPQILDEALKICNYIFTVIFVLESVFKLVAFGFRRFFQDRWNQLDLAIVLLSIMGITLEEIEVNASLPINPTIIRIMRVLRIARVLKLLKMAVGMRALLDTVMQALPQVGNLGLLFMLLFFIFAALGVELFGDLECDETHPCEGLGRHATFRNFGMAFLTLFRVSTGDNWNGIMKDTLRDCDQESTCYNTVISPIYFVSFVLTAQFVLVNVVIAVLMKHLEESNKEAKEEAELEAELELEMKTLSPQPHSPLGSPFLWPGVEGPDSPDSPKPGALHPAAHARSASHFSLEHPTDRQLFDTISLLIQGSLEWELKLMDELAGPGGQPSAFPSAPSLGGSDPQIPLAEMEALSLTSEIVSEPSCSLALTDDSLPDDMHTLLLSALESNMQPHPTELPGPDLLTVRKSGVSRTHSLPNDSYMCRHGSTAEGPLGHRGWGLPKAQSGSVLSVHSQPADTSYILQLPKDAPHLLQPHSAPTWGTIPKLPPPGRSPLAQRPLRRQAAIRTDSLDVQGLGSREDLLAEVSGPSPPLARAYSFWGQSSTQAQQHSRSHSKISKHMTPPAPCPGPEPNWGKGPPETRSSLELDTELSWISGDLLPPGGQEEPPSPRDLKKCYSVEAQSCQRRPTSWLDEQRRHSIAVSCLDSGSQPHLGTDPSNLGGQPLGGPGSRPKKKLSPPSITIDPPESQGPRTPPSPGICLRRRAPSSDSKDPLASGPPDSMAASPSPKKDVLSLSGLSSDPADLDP
T2 sequence (O95180 whole entry): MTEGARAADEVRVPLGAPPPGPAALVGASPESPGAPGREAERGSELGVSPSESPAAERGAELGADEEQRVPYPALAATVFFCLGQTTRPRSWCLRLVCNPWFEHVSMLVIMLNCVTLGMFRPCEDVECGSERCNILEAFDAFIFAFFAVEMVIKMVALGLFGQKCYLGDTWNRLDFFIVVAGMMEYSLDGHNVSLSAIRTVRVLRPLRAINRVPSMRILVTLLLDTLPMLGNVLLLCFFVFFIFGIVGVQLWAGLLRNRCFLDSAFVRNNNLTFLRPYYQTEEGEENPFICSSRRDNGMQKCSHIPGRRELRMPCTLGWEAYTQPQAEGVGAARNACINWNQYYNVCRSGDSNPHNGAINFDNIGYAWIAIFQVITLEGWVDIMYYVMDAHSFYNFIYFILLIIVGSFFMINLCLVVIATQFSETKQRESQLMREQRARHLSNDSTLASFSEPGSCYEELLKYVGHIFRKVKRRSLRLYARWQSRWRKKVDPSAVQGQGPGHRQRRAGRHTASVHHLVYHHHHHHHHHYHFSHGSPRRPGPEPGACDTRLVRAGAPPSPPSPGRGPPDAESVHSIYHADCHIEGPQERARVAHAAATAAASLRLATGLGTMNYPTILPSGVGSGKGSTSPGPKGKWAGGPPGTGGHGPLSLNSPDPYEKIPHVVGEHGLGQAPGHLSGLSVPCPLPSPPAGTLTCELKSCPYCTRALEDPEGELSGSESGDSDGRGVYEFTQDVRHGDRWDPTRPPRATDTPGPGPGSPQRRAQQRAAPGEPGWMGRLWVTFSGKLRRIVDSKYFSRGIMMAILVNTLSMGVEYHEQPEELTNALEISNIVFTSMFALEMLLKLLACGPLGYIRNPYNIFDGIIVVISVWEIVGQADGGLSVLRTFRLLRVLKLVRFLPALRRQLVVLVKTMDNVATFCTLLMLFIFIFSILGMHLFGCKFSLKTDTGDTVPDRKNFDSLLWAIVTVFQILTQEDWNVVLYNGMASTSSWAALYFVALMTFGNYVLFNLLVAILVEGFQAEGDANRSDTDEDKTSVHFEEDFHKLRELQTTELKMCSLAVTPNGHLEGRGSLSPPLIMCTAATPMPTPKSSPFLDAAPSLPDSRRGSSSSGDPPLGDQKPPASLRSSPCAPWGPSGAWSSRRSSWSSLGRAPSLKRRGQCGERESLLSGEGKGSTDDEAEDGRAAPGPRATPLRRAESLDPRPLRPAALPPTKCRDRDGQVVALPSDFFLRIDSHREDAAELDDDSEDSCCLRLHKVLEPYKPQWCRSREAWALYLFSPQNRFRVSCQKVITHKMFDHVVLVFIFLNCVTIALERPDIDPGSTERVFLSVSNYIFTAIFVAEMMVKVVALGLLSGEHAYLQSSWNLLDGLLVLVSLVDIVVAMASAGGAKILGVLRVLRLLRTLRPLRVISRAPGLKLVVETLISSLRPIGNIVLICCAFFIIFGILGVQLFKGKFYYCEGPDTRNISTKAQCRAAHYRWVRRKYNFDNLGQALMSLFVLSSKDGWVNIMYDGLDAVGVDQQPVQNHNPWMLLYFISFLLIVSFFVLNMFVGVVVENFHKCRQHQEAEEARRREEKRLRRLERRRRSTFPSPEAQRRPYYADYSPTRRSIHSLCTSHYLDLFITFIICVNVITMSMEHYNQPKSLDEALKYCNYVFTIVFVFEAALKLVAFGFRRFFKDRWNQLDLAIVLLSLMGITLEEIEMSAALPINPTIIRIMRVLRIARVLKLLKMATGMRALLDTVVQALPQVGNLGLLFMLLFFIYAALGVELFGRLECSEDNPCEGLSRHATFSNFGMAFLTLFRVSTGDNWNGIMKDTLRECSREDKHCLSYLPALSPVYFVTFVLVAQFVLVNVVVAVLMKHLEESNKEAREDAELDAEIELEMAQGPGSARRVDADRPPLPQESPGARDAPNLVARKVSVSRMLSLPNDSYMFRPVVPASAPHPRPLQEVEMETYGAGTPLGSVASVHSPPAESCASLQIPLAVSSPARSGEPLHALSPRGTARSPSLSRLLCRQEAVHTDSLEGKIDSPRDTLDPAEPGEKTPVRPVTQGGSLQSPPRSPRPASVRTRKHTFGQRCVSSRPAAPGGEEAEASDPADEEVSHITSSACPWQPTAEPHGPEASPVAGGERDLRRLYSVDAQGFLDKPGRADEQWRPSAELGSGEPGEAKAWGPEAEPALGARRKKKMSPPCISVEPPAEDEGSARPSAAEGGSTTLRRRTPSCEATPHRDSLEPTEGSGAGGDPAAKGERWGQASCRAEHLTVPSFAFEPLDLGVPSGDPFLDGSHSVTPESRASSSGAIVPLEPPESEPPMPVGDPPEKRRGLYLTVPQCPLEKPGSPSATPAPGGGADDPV

IC50 (α1G T-type Ca^2+ channel) [nM]	inhibition at 100 µM (calcium channel (α1H)) [%]	inhibition at 10 µM (α1G T-type Ca^2+ channel) [%]	Compound
1770 ± 200	56.4	–	CC(C)Cc1cc(CNCCN2CCN(c3ccc([N+](=O)[O-])cc3)CC2)nn1C(C)(C)C [compound 52, 1-t-butyl-5-iso-butyl-3-{2-[4-(4-nitrophenyl)piperazin-1-yl]ethyl}aminomethylpyrazole]
300 ± 30	80.1	94.5 ± 2.8	CCCc1cc(CNCCN2CCN(c3ccccc3)CC2)nn1-c1ccccc1 [compound 4, 5-propyl-1-phenyl-3-[2-(4-phenylpiperazin-1-yl)ethyl]aminomethylpyrazole]
2190 ± 30	40.4	89.9 ± 0.3	CC(C)Cc1cc(CNCCN2CCN(C(c3ccccc3)c3ccccc3)CC2)nn1C(C)(C)C [compound 84, 1-t-butyl-5-iso-butyl-3-{2-[4-(4-diphenylmethyl)piperazin-1-yl]ethyl}aminomethylpyrazole]
660 ± 70	51.3	95.3 ± 1.4	CCCc1cc(CNCCN2CCN(c3ccc([N+](=O)[O-])cc3)CC2)nn1-c1ccccc1 [compound 51, 3-{2-[4-(4-nitrophenyl)piperazin-1-yl]ethyl}aminomethyl-1-phenyl-5-propylpyrazole]
330 ± 660	34.5	79.2 ± 3.3	Cc1cc(CNCCN2CCN(C(c3ccccc3)c3ccc(Cl)cc3)CC2)nn1-c1ccccc1 (stereo not shown) [compound 92, 3-{2-[4-(4-chlorobenzhydryl)piperazin-1-yl]ethyl}aminomethyl-5-methyl-1-phenylpyrazole]
4420 ± 890	24.8	60.5 ± 0.6	CCCc1cc(CNCCN2CCN(C(c3ccccc3)c3ccccc3)CC2)nn1C(C)(C)C [compound 82, 1-t-butyl-3-{2-[4-(4-diphenylmethyl)piperazin-1-yl]ethyl}aminomethyl-5-propyl pyrazole]
900 ± 70	67.8	91.6 ± 0.5	CCCc1cc(CNCCN2CCN(c3ccc(OC)cc3)CC2)nn1-c1ccccc1 [compound 39, 3-{2-[4-(4-methoxyphenyl)piperazin-1-yl]ethyl}aminomethyl-5-propyl-1-phenylpyrazole]
9410 ± 550	–	53 ± 1.6	COc1ccc(N2CCN(CCNCc3cc(C)n(-c4ccccc4)n3)CC2)cc1 [compound 37, 3-{2-[4-(4-methoxyphenyl)piperazin-1-yl]ethyl}aminomethyl-5-methyl-1-phenylpyrazole]
820 ± 40	77.1	87.9 ± 2.7	CC(C)Cc1cc(CNCCN2CCN(c3ccccc3)CC2)nn1-c1ccccc1 [compound 7, 5-iso-butyl-1-phenyl-3-[2-(4-phenylpiperazin-1-yl)ethyl]aminomethylpyrazole]
900 ± 90	44.7	75.8 ± 1	CCCc1cc(CNCCN2CCN(c3cccc(Cl)c3)CC2)nn1-c1ccccc1 [compound 76, 3-{2-[4-(3-chlorophenyl)piperazin-1-yl]ethyl}aminomethyl-1-phenyl-5-propylpyrazole]
1060 ± 20	74.4	94.8 ± 1.3	CC(C)Cc1cc(CNCCN2CCN(c3ccc([N+](=O)[O-])cc3)CC2)nn1-c1ccccc1 [compound 53, 5-iso-butyl-3-{2-[4-(4-nitrophenyl)piperazin-1-yl]ethyl}aminomethyl-1-phenylpyrazole]
1040 ± 150	73.3	95.6 ± 1.8	COc1ccc(N2CCN(CCNCc3cc(CC(C)C)n(-c4ccccc4)n3)CC2)cc1 [compound 42, 5-iso-butyl-3-{2-[4-(4-methoxyphenyl)piperazin-1-yl]ethyl}aminomethyl-1-phenyl pyrazole]
570 ± 60	95.4	97.4 ± 1.3	Cc1cc(CNCCN2CCN(C(c3ccccc3)c3ccccc3)CC2)nn1-c1ccccc1 [compound 81, 3-{2-[4-(4-diphenylmethyl)piperazin-1-yl]ethyl}aminomethyl-5-methyl-1-phenylpyrazole]
1020 ± 100	92	92.7 ± 5.7	Cc1cccc(N2CCN(CCNCc3cc(CC(C)C)n(-c4ccccc4)n3)CC2)c1C [compound 18, 5-iso-butyl-3-{2-[4-(2,3-dimethylphenyl)piperazin-1-yl]ethyl}aminomethyl-1-phenylpyrazole]
660 ± 40	54.9	93.8 ± 1.4	CCCc1cc(CNCCN2CCN(c3ccccc3F)CC2)nn1-c1ccccc1 [compound 63, 3-{2-[4-(2-fluorophenyl)piperazin-1-yl]ethyl}aminomethyl-1-phenyl-5-propylpyrazole]
300 ± 40	97.8	92.4 ± 1.8	CCCc1cc(CNCCN2CCN(C(c3ccccc3)c3ccccc3)CC2)nn1-c1ccccc1 [compound 83, 3-{2-[4-(4-diphenylmethyl)piperazin-1-yl]ethyl}aminomethyl-1-phenyl-5-propylpyrazole]
580 ± 50	74.6	95.9 ± 0.7	CCCc1cc(CNCCN2CCN(c3cccc(C)c3C)CC2)nn1-c1ccccc1 [compound 16, 3-{2-[4-(2,3-dimethylphenyl)piperazin-1-yl]ethyl}aminomethyl-1-phenyl-5-propylpyrazole]
650 ± 30	92.9	100	CCCc1cc(CNCCN2CCN(C(c3ccccc3)c3ccc(Cl)cc3)CC2)nn1-c1ccccc1 (stereo not shown) [compound 94, 3-{2-[4-(4-chlorobenzhydryl)piperazin-1-yl]ethyl}aminomethyl-1-phenyl-5-propylpyrazole]
1430 ± 150	27.5	79.4 ± 1.6	CCCc1cc(CNCCN2CCN(c3cccc(C)c3C)CC2)nn1C(C)(C)C [compound 15, 1-t-butyl-3-{2-[4-(2,3-dimethylphenyl)piperazin-1-yl]ethyl}aminomethyl-5-propylpyrazole]

Reference: patent US7544686B2, “Piperazinylalkylpyrazole derivatives useful as selective T-type calcium channel blockers and preparation method thereof” (Korea Institute of Science and Technology, priority 2005, dated 2009)
